Assay results from PMC7026885, “Macrofilaricidal Benzimidazole–Benzoxaborole Hybrids as an Approach to the Treatment of River Blindness: Part 1. Amide Linked Analogs” (ACS Infectious Diseases, 2019).
Values belong to the compound of their own block, whether it stands above or below them.

Experiments:
[1] = MDR1-MDCK monolayer permeability assay; assay type: in vitro ADME; conditions: dog
Procedure: We characterized the in vitro ADME properties of 8a in preparation for evaluation of this compound in our primary in vivo model in gerbils. […] We were pleased to find that 8a was able to kill 100% of both male and female worms in the gerbil peritoneum when dosed subcutaneously at 100 mg/kg/day for 14 days as a suspension in a nonsolubilizing HEC/Tween vehicle. […] The subsequent assessment of the pharmacokinetics of 8a from these two dosing paradigms provided an interesting observation that we believe to be important in understanding the PK–PD requirements for achieving efficacy in this animal model. […] We had made the same observation in a positive control group using flubendazole at a subcutaneous dose of 10 mg/kg/day for 5 days in the nonsolubilizing HEC/Tween vehicle, namely, that plasma levels of flubendazole were maintained above the in vitro IC50 (4 nM) for over 42 days, consistent with data reported in the literature.[43] […] We next examined 8a in two additional in vivo models, the first where L3 B. pahangi larvae were injected into the peritoneum of gerbils and allowed to develop into adult worms[45] and a second where gerbils were naturally infected by the filarial nematode Litomosoides sigmodontis.[46],[47] In both of these models, 8a was administered subcutaneously at 100 mg/kg for 14 days or orally at 100 mg/kg for 28 days as a suspension. […] Additionally, when plasma obtained from treated animals at necropsy was analyzed for 8a, we observed an outcome similar to that observed in the adult implantation model, e.g., that measurable levels were present at this time point in the subcutaneous-dosed groups but not in the orally dosed groups, weeks after administration of the drug. In a final L. sigmodontis experiment with 8a, we dosed the compound subcutaneously at 300 mg/kg for 7 days as a suspension.

[2] = system: G2/M arrest (functional indicator of interaction with mammalian tubulin); assay: mammalian G2/M arrest assay; assay type: cell-based; conditions: Table 3; read-out: G2/M IC50
Procedure: (§1) The first three analogs from the benzimidazole 5-carboxylic acid, namely 7a (from 6-aminobenzoxaborole), 8a (from 6-aminomethyl-3,3-dimethylbenzoxaborole), and 8b (from 3-aminomethylbenzoxaborole), were prepared and tested in an Onchocerca volvulus L3 larval molting assay[34],[35] and a mammalian G2/M arrest assay[36] to evaluate antifilarial activity and selectivity, respectively (Table 1). O. volvulus is the causative agent of river blindness, and the L3 molting assay is the only widely available and reproducible assay of this filariid, the target of novel macrofilaricidal drugs.[34],[35] Other animal models (e.g., Brugia in gerbils) recapitulate aspects of lymphatic filariasis and are also used as surrogate screens for O. volvulus infections. Of the three compounds tested, 8a emerged as the most attractive compound on the basis of potency and selectivity.
Similarly, changing the point of attachment on the benzoxaborole core from 6- to 5- to afford 8d was also accompanied by increased potency in both the O. volvulus and G2/M arrest assays.

[3] = system: Onchocerca volvulus L3 larvae; assay: Onchocerca volvulus L3 larval molting assay; assay type: cell-based; conditions: O. volvulus, 1 μM
Procedure: as §1
Plates were incubated at 37 °C in a 5% CO2 incubator for 6 days, then molting was assessed visually using an inverted microscope. Molting was determined in each well by counting the presence of fourth stage larvae (L4s) and empty casts of L3s.
The percent inhibition of molting was calculated based on the number of treated larvae that were able to molt in comparison to the number of control larvae that had successfully molted. IC50 values were calculated using GraphPad Prism v6.0
(http://www.graphpad.com). See Bullman et al., PLoS Negl. Trop.
Adult Brugia malayi transplantation in vivo model procedure.
Gerbils (Meriones unguiculatus) were infected by transplantation of 10 male and 10 female adult Brugia malayi into the peritoneal cavity. Gerbils were acclimated for 7 days prior to treatment. Animals were dosed based on their body weight prior to each dosing. Animals were administered their doses at the same time each day and receive standard rodent laboratory diet and water ad libitum. Gerbils were humanely euthanized at the conclusion of each study. Peritoneal counts of male and female adult B. malayi and visual condition of the peritoneum were recorded.
Brugia pahangi L3 injection in vivo model procedure 8.
Male gerbils (Meriones unguiculatus) approximately 6 weeks of age (50-60 g) were purchased from Charles Rivers (USA, Kingston K62 Gerbils) and infected by intraperitoneal injection with 200 Brugia pahangi third-stage larvae (L3) per animal
(Filariatech, Inc., Athens, GA). Gerbils were housed with no more than 5 animals per cage and maintained 9 months prior to treatment. All gerbils were dosed in accordance with their body weight determined prior to each dosing. Animals were […]

Papp A→B [1]: 1.8 ×10⁻⁶ cm/s | IC50 [2]: > 100 µM
SMILES: COC(=O)Nc1nc2ccc(C(=O)NCc3ccc4c(c3)B(O)OC4(C)C)cc2n1C [8f]
inhibition at 1 µM [3]: 29%

Papp A→B [1]: 1.2 ×10⁻⁶ cm/s | IC50 [2]: > 100 µM
SMILES: COC(=O)Nc1nc2cc(C(=O)NCc3ccc4c(c3)B(O)OC4(C)C)ccc2n1C [8e]
inhibition at 1 µM [3]: 24%

Second part, the compound before the results:

SMILES: COC(=O)Nc1nc2ccc(C(=O)N(CCN(C)C)Cc3ccc4c(c3)B(O)OC4(C)C)cc2[nH]1 [8h]
Papp A→B [1]: 0.14 ×10⁻⁶ cm/s | IC50 [2]: 35 µM

SMILES: COC(=O)Nc1nc2ccc(C(=O)N(C)Cc3ccc4c(c3)B(O)OC4(C)C)cc2[nH]1 [8g]
Papp A→B [1]: 0.6 ×10⁻⁶ cm/s | IC50 [2]: 4.1 µM

SMILES: COC(=O)Nc1nc2c(F)c(C(=O)NCc3ccc4c(c3)B(O)OC4(C)C)ccc2[nH]1 [8i]
inhibition at 1 µM [3]: 0% | Papp A→B [1]: 2.35 ×10⁻⁶ cm/s | IC50 [2]: 16 µM
